Assays:
metastatic NSCLC = test: GEN1046 in combination with docetaxel in metastatic NSCLC subjects, efficacy (RECIST v1.1); assay type: in vivo, human; settings: six subjects dosed with GEN1046 and 75 mg/m^2 Docetaxel
Description: Docetaxel was administered at a dose of 55 mg/m^2 or 75 mg/m^2 depending on the number of prior Dose Limiting Toxicities observed. The maximum tested dose of docetaxel was be 75 mg/m^2.
The following inclusion criteria applied to the combination arm (NSCLC): GEN1046 in combination with docetaxel: • NSCLC subjects of any histology may be enrolled. Subjects with a histological or cytological diagnosis of non-squamous NSCLC must not have an EGFR-sensitizing mutation and/or ALK translocation/ROS1 rearrangement. EGFR sensitizing mutations are those mutations that are amenable to treatment with an approved TKI. Documentation of EGFR and ALK status should be available per local assessment.
In one of the six patients the first post-baseline scan was indicative of response according to RECIST Criteria v1.1.

[1] = tested on: effector memory CD8 T cells (CD8+CD45RA−CCR7− T cells); test: Proliferating (Ki67+) effector memory CD8 T cells in peripheral blood of patients (flow cytometry); settings: human, in vivo
Description: 100 μL of whole blood was added to fluorochrome-conjugated monoclonal antibodies that bind specifically to cell surface antigens: CD45RA-FITC (clone LEU-18, BD Biosciences cat. no. 335039), CCR7-BV510 (clone 3D12, BD Biosciences, cat. no. 563449), CD8-PerCP-Cy5.5 (clone RPA-T8, BD Biosciences, cat. no. 560662). After incubation on ice, the stained samples were treated with FACS Lysing Solution (BD Biosciences, Catalog No 349202) to lyse erythrocytes. Excess antibody and cell debris were removed by washing with Stain Buffer (BD Biosciences, cat. no. 554656). Following lyse/wash, cells were fixed and permeabilized by incubation with Permeabilizing Solution 2 buffer (BD Biosciences, cat. no. 340973). Next, cells were washed and resuspended in Stain Buffer and incubated on ice with antibody to Ki67 (BV421 B56, BD Biosciences, cat. no. 562899) to detect proliferating cells. After incubation, excess antibody was removed by washing with Stain Buffer. Cells were resuspended in Stain Buffer and acquired on a BD FACSCanto™ II flow cytometer (Becton Dickinson) within 1 hour of staining.

**Q.** For “GEN1046: PD-L1×4-1BB bispecific antibody: PD-L1-547-FEAL combined with CD137-009-HC7LC2-FEAR (SEQ ID NOs: 1, 5, 21, 19; 8, 12, 22, 20)”, which “Patients whose first post-baseline scan was indicative of response (RECIST v1.1)” value (metastatic NSCLC) is on record?
**A.** Its value is “one”.

**Q.** And the “Cohort with maximal and more consistent modulation of proliferating CD8+ effector memory T cells” value [1]?
**A.** Its value is 80 mg.
